≈ marks a conversion by molar mass, not a printed value.
How the values were obtained:
Format in all cases: functional
[1] = tested on: Mycobacterium tuberculosis; experiment: AntiMycobacterium tuberculosis activity Non-Replicating form: Average MIC90 (uM)
HepG2 = experiment: HepG2 CC50 (uM) Cytotoxicity; settings: Homo sapiens
[2] = tested on: Mycobacterium tuberculosis; experiment: AntiMycobacterium tuberculosis activity 1-week 7H9/cholesterol/BSA/Tx MIC (uM); settings: 168 h
[3] = tested on: Mycobacterium tuberculosis; experiment: AntiMycobacterium tuberculosis activity 2-week 7H9/glucose/BSA/Tx MIC (uM); settings: 336 h
[4] = tested on: Mycobacterium tuberculosis; experiment: AntiMycobacterium tuberculosis activity 2-week 7H9/ADC/Tw MIC (uM); settings: 336 h
[5] = tested on: Mycobacterium tuberculosis; experiment: AntiMycobacterium tuberculosis activity 2-week Alamar Blue 7H9/cholesterol/BSA/Tx MIC (uM); settings: 336 h
[6] = tested on: Mycobacterium tuberculosis; experiment: (§1) AntiMycobacterium tuberculosis activity day 10 in 7H9/2.5mM butyrate/pH6/0.1mM nitrite MIC90 (uM); settings: 240 h
[7] = tested on: Mycobacterium tuberculosis; experiment: as §1; settings: 240 h; remark: listed apart in the source
[8] = tested on: Mycobacterium tuberculosis; experiment: AntiMycobacterium tuberculosis activity 1-week 7H9/DPPC/cholesterol/BSA/Tx MIC (uM); settings: 168 h
[9] = tested on: Mycobacterium tuberculosis; experiment: AntiMycobacterium tuberculosis activity 2-week Alamar Blue 7H9/ADC/Tw MIC (uM); settings: 336 h
[10] = tested on: Mycobacterium tuberculosis; experiment: AntiMycobacterium tuberculosis activity day 21 MIC99 in 7H9/2.5mM butyrate/pH6/0.1mM nitrite MIC99 (uM); settings: 504 h
[11] = tested on: Mycobacterium tuberculosis; experiment: AntiMycobacterium tuberculosis activity day 21 in 7H9/2.5mM butyrate/pH6/0.1mM nitrite MIC90 (uM); settings: 504 h
[12] = tested on: Mycobacterium tuberculosis; experiment: AntiMycobacterium tuberculosis activity 1-week GAST/Fe MIC (uM); settings: 168 h
[13] = tested on: Mycobacterium tuberculosis; experiment: AntiMycobacterium tuberculosis activity Replicating form: Average MIC90 (uM)
[14] = tested on: Mycobacterium tuberculosis; experiment: AntiMycobacterium tuberculosis activity 1-week 7H9/glucose/BSA/Tx MIC (uM); settings: 168 h
[15] = tested on: Mycobacterium tuberculosis; experiment: AntiMycobacterium tuberculosis activity 2-week 7H9/DPPC/cholesterol/BSA/Tx MIC (uM); settings: 336 h
[16] = tested on: Mycobacterium tuberculosis; experiment: AntiMycobacterium tuberculosis activity 2-week GAST/Fe MIC (uM); settings: 336 h
[17] = tested on: Mycobacterium tuberculosis; experiment: AntiMycobacterium tuberculosis activity 1-week 7H9/ADC/Tw MIC (uM); settings: 168 h

Compound | MIC90 [1] | CC50 (HepG2) | MIC [2] | MIC [3] | MIC [4] | MIC [5] | MIC90 [6] | MIC90 [7] | MIC [8] | MIC [9] | MIC [10] | MIC90 [11] | MIC [12] | MIC90 [13] | MIC [14] | MIC [15] | MIC [16] | MIC [17]
COc1ccc(OC(C)C(=O)Nc2ccc(Cl)cc2C)cc1 (configuration not stated) | 12.2 µM (≈ 3.91 µg/mL) | > 100 µM | 9.4 µM (≈ 3.01 µg/mL) | 9.4 µM (≈ 3.01 µg/mL) | 6.25 µM (≈ 2 µg/mL) | 12.5 µM (≈ 4 µg/mL) | > 50 µM | 25 µM (≈ 7.99 µg/mL) | 6.25 µM (≈ 2 µg/mL) | 6.25 µM (≈ 2 µg/mL) | 50 µM (≈ 16 µg/mL) | 25 µM (≈ 7.99 µg/mL) | 2.3 µM (≈ 0.736 µg/mL) | 14.6 µM (≈ 4.68 µg/mL) | 9.4 µM (≈ 3.01 µg/mL) | 6.25 µM (≈ 2 µg/mL) | 2.3 µM (≈ 0.736 µg/mL) | 4.7 µM (≈ 1.5 µg/mL)
N#Cc1ccc(-c2ccc(OCC(N)=O)cc2)cc1 | 13.7 µM (≈ 3.46 µg/mL) | > 100 µM | 12.5 µM (≈ 3.15 µg/mL) | 50 µM (≈ 12.6 µg/mL) | > 50 µM | ≥ 50 µM | > 50 µM | 25 µM (≈ 6.31 µg/mL) | 12.5 µM (≈ 3.15 µg/mL) | 50 µM (≈ 12.6 µg/mL) | > 50 µM | 25 µM (≈ 6.31 µg/mL) | 4.7 µM (≈ 1.19 µg/mL) | 23.2 µM (≈ 5.86 µg/mL) | 25 µM (≈ 6.31 µg/mL) | 50 µM (≈ 12.6 µg/mL) | 4.7 µM (≈ 1.19 µg/mL) | 37 µM (≈ 9.33 µg/mL)
CCc1ccc(S(=O)(=O)Nc2cc(CN3CCN(CCC(C)C)CC3)ccc2C)cc1 | 89.8 µM (≈ 39.8 µg/mL) | 27.4 µM | 12.5 µM (≈ 5.55 µg/mL) | 25 µM (≈ 11.1 µg/mL) | 25 µM (≈ 11.1 µg/mL) | 12.5 µM (≈ 5.55 µg/mL) | > 50 µM | > 50 µM | 12.5 µM (≈ 5.55 µg/mL) | 25 µM (≈ 11.1 µg/mL) | > 50 µM | 50 µM (≈ 22.2 µg/mL) | 19 µM (≈ 8.43 µg/mL) | 45.6 µM (≈ 20.2 µg/mL) | 25 µM (≈ 11.1 µg/mL) | 12.5 µM (≈ 5.55 µg/mL) | 25 µM (≈ 11.1 µg/mL) | 25 µM (≈ 11.1 µg/mL)
CCc1nc2ccccc2n1CC(O)COc1cc(C)ccc1Cl (configuration not stated) | 70 µM (≈ 24.1 µg/mL) | 43.2 µM | 9.4 µM (≈ 3.24 µg/mL) | ≥ 50 µM | ≥ 50 µM | 9.4 µM (≈ 3.24 µg/mL) | > 50 µM | 25 µM (≈ 8.62 µg/mL) | 12.5 µM (≈ 4.31 µg/mL) | 37 µM (≈ 12.8 µg/mL) | > 50 µM | 50 µM (≈ 17.2 µg/mL) | 12.5 µM (≈ 4.31 µg/mL) | 78 µM (≈ 26.9 µg/mL) | 37 µM (≈ 12.8 µg/mL) | 25 µM (≈ 8.62 µg/mL) | 12.5 µM (≈ 4.31 µg/mL) | 37 µM (≈ 12.8 µg/mL)
CC(C)n1ncc2c(C(=O)NCC(c3cccs3)N3CCOCC3)cc(-c3ccccc3)nc21 (configuration not stated) | 1.28 µM (≈ 0.609 µg/mL) | 58 µM | 0.6 µM (≈ 0.285 µg/mL) | 1.2 µM (≈ 0.571 µg/mL) | 1.2 µM (≈ 0.571 µg/mL) | 1.56 µM (≈ 0.742 µg/mL) | 1.5 µM (≈ 0.713 µg/mL) | 3.12 µM (≈ 1.48 µg/mL) | 0.78 µM (≈ 0.371 µg/mL) | 1.2 µM (≈ 0.571 µg/mL) | 1.5 µM (≈ 0.713 µg/mL) | 3.12 µM (≈ 1.48 µg/mL) | 0.3 µM (≈ 0.143 µg/mL) | 0.61 µM (≈ 0.29 µg/mL) | 1.2 µM (≈ 0.571 µg/mL) | 0.78 µM (≈ 0.371 µg/mL) | 0.3 µM (≈ 0.143 µg/mL) | 0.78 µM (≈ 0.371 µg/mL)
O=C(Nc1cccnc1)c1c(O)c2cccc3c2n(c1=O)CC3 | 7.75 µM (≈ 2.38 µg/mL) | > 100 µM | 12.5 µM (≈ 3.84 µg/mL) | 9.4 µM (≈ 2.89 µg/mL) | 25 µM (≈ 7.68 µg/mL) | 12.5 µM (≈ 3.84 µg/mL) | > 50 µM | 6.25 µM (≈ 1.92 µg/mL) | 12.5 µM (≈ 3.84 µg/mL) | 25 µM (≈ 7.68 µg/mL) | > 50 µM | 12.5 µM (≈ 3.84 µg/mL) | 3.13 µM (≈ 0.962 µg/mL) | 8.35 µM (≈ 2.57 µg/mL) | 6.25 µM (≈ 1.92 µg/mL) | 12.5 µM (≈ 3.84 µg/mL) | 3.13 µM (≈ 0.962 µg/mL) | 25 µM (≈ 7.68 µg/mL)
COc1ccc2nc(C)cc(OCC(=O)NCc3ccccc3)c2c1 | 27.1 µM (≈ 9.12 µg/mL) | > 100 µM | > 50 µM | > 50 µM | > 50 µM | 3.13 µM (≈ 1.05 µg/mL) | > 50 µM | > 50 µM | 12.5 µM (≈ 4.2 µg/mL) | 6.25 µM (≈ 2.1 µg/mL) | > 50 µM | > 50 µM | 0.78 µM (≈ 0.262 µg/mL) | > 100 µM | > 50 µM | > 50 µM | 1.56 µM (≈ 0.525 µg/mL) | > 50 µM
O=C(C1CCN(c2nnc(-n3cccc3)s2)CC1)N1CCC(Cc2ccccc2)CC1 | 0.8 µM (≈ 0.348 µg/mL) | > 100 µM | 0.02 µM (≈ 0.00871 µg/mL) | 0.1 µM (≈ 0.0436 µg/mL) | 0.07 µM (≈ 0.0305 µg/mL) | 0.05 µM (≈ 0.0218 µg/mL) | 0.78 µM (≈ 0.34 µg/mL) | 0.19 µM (≈ 0.0828 µg/mL) | 0.02 µM (≈ 0.00871 µg/mL) | 0.07 µM (≈ 0.0305 µg/mL) | 0.78 µM (≈ 0.34 µg/mL) | 0.19 µM (≈ 0.0828 µg/mL) | 0.02 µM (≈ 0.00871 µg/mL) | 0.94 µM (≈ 0.409 µg/mL) | 0.1 µM (≈ 0.0436 µg/mL) | 0.04 µM (≈ 0.0174 µg/mL) | 0.02 µM (≈ 0.00871 µg/mL) | 0.1 µM (≈ 0.0436 µg/mL)
Cc1ccc2[nH]c(C3CCCNC3)c(-c3ccncc3)c2c1 (configuration not stated) | 50.5 µM (≈ 14.7 µg/mL) | 12.7 µM | 6.25 µM (≈ 1.82 µg/mL) | 50 µM (≈ 14.6 µg/mL) | 50 µM (≈ 14.6 µg/mL) | 9.4 µM (≈ 2.74 µg/mL) | 25 µM (≈ 7.28 µg/mL) | 6.25 µM (≈ 1.82 µg/mL) | 9.4 µM (≈ 2.74 µg/mL) | 12.5 µM (≈ 3.64 µg/mL) | 25 µM (≈ 7.28 µg/mL) | 12.5 µM (≈ 3.64 µg/mL) | 1.56 µM (≈ 0.455 µg/mL) | 19.5 µM (≈ 5.68 µg/mL) | 25 µM (≈ 7.28 µg/mL) | 9.4 µM (≈ 2.74 µg/mL) | 2.3 µM (≈ 0.67 µg/mL) | 37 µM (≈ 10.8 µg/mL)
